Experimental data reported in patent publication US10167262B2, “Herbicidal substituted 3-arylpyrazoles” (FMC CORPORATION, priority 2014, dated 2019).

Tests used:
Format in all cases: in vivo
[1] = tested on: canarygrass (Phalaris minor); experiment: Test C postemergence greenhouse test, plant response rating 0-100; details: for Plant response rating, Canarygrass: scale 0 to 100
Procedure, shortened: (§1)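 Formulated compounds applied postemergence; plants 1- to 4-leaf stage. Evaluated visually vs. untreated controls after roughly two weeks (13–15 d) under greenhouse conditions; 100 denotes complete control.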

[2] = tested on: deadnettle (henbit deadnettle, Lamium amplexicaule); experiment: as above; details: for Plant response rating, Deadnettle: scale 0 to 100
Procedure, shortened: as §1

[3] = tested on: downy bromegrass (Bromus tectorum); experiment: as above; details: for Plant response rating, Bromegrass, Downy: scale 0 to 100
Procedure, shortened: as §1

[4] = tested on: goosegrass (Eleusine indica); experiment: as above; details: for Plant response rating, Goosegrass: scale 0 to 100
Procedure, shortened: as §1

[5] = tested on: green foxtail (Setaria viridis); experiment: as above; details: for Plant response rating, Foxtail, Green: scale 0 to 100
Procedure, shortened: as §1

[6] = tested on: windgrass (Apera spica-venti); experiment: as above; details: for Plant response rating, Windgrass: scale 0 to 100
Procedure, shortened: as §1

[7] = tested on: winter barley (Hordeum vulgare); experiment: as above; details: for Plant response rating, Barley: scale 0 to 100
Procedure, shortened: as §1

[8] = tested on: woolly cupgrass (Eriochloa villosa); experiment: as above; details: for Plant response rating, Cupgrass, Woolly: scale 0 to 100
Procedure, shortened: as §1

[9] = tested on: fall panicum (Panicum dichotomiflorum); experiment: Test E pre-/postemergence greenhouse test, plant response rating 0-100; details: Postemergence, scale 0 to 100
Procedure, shortened: (§2)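 Pre- and postemergence sprays, vehicle non-phytotoxic solvent containing surfactant; postemergence plants 2–18 cm tall at the 1–4-leaf stage. Scored against controls after 14 to 21 days in a greenhouse, 0 being no effect and 100 complete control.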

soybean (Glycine max) = experiment: as above; details: scale 0 to 100; for Soybean plant response rating: Preemergence
Procedure, shortened: as §2

[10] = tested on: waterhemp_RES2, (ALS & HPPD resistant common waterhemp, Amaranthus rudis); experiment: Test E postemergence greenhouse test, plant response rating 0-100; details: scale 0 to 100
Experimental: At the same time, plants from these crop and weed species and also waterhemp_RES1, (ALS & Triazine resistant common waterhemp, Amaranthus rudis), and waterhemp_RES2, (ALS & HPPD resistant common waterhemp, Amaranthus rudis) were planted in pots containing Redi-Earth® planting medium (Scotts Company, 14111 Scottslawn Road, Marysville, Ohio 43041) comprising spaghnum peat moss, vermiculite, wetting agent and starter nutrients were treated with postemergence applications of test chemicals formulated in the same manner. Plants ranged in height from 2 to 18 cm for postemergence treatments (1- to 4-leaf stage).
Treated plants and controls were maintained in a greenhouse for 14 to 21 days, after which time all species were compared to controls and visually evaluated. Plant response ratings, summarized in Table E, are based on a scale of 0 to 100 where 0 is no effect and 100 is complete control. A dash (-) response means no test result.

CCn1cc(C(=O)c2cccs2)c(-c2cc(Cl)cc(Cl)c2)n1 [Compound 18]
40: Plant response rating (0 to 100), Deadnettle ([2]; 125 g ai/ha)
0: Plant response rating (0 to 100), Canarygrass ([1]; 62 g ai/ha) | Plant response rating (0 to 100), Canarygrass ([1]; 125 g ai/ha) | Plant response rating, Canarygrass ([1]; 250 g ai/ha) | Plant response rating (0 to 100), Bromegrass, Downy ([3]; 62 g ai/ha) | Plant response rating, Bromegrass, Downy ([3]; 125 g ai/ha) | Plant response rating, Bromegrass, Downy ([3]; 250 g ai/ha) | Plant response rating, Bromegrass, Downy ([3]; 500 g ai/ha) | Plant response rating (0 to 100), Goosegrass ([4]; 62 g ai/ha) | Plant response rating (0 to 100), Goosegrass ([4]; 125 g ai/ha) | Plant response rating (0 to 100), Foxtail, Green ([5]; 62 g ai/ha) | Plant response rating (0 to 100), Foxtail, Green ([5]; 125 g ai/ha) | Plant response rating, Foxtail, Green ([5]; 250 g ai/ha) | Plant response rating, Foxtail, Green ([5]; 500 g ai/ha) | Plant response rating (0 to 100), Windgrass ([6]; 62 g ai/ha) | Plant response rating (0 to 100), Windgrass ([6]; 125 g ai/ha) | Plant response rating, Windgrass ([6]; 250 g ai/ha) | Plant response rating (0 to 100), Barley ([7]; 62 g ai/ha) | Plant response rating, Barley ([7]; 125 g ai/ha) | Plant response rating, Barley ([7]; 250 g ai/ha) | Plant response rating, Barley ([7]; 500 g ai/ha) | Plant response rating, Panicum, Fall ([9]; 31 g ai/ha) | Plant response rating, Panicum, Fall ([9]; 62 g ai/ha) | Plant response rating, Panicum, Fall ([9]; 125 g ai/ha) | Plant response rating, Panicum, Fall ([9]; 250 g ai/ha) | Plant response rating, Soybean (soybean (Glycine max); Postemergence, 31 g ai/ha) | Plant response rating, Soybean (soybean (Glycine max); Postemergence, 62 g ai/ha)
95: Plant response rating, Waterhemp_RES2 ([10]; 500 g ai/ha)
85: Plant response rating, Waterhemp_RES2 ([10]; 125 g ai/ha)
60: Plant response rating, Deadnettle ([2]; 500 g ai/ha)
15: Plant response rating, Goosegrass ([4]; 500 g ai/ha) | Plant response rating, Cupgrass, Woolly ([8]; 250 g ai/ha)
5: Plant response rating, Canarygrass ([1]; 500 g ai/ha) | Plant response rating, Windgrass ([6]; 500 g ai/ha) | Plant response rating (0 to 100), Cupgrass, Woolly ([8]; 62 g ai/ha)
30: Plant response rating, Soybean (soybean (Glycine max); Postemergence, 500 g ai/ha)
80: Plant response rating, Waterhemp_RES2 ([10]; 62 g ai/ha)
90: Plant response rating, Waterhemp_RES2 ([10]; 250 g ai/ha)
20: Plant response rating (0 to 100), Deadnettle ([2]; 62 g ai/ha) | Plant response rating, Cupgrass, Woolly ([8]; 500 g ai/ha) | Plant response rating, Soybean (soybean (Glycine max); Postemergence, 250 g ai/ha)
10: Plant response rating, Goosegrass ([4]; 250 g ai/ha) | Plant response rating (0 to 100), Cupgrass, Woolly ([8]; 125 g ai/ha) | Plant response rating, Panicum, Fall ([9]; 500 g ai/ha) | Plant response rating, Soybean (soybean (Glycine max); Postemergence, 125 g ai/ha)
65: Plant response rating, Waterhemp_RES2 ([10]; 31 g ai/ha)
55: Plant response rating, Deadnettle ([2]; 250 g ai/ha)

C=CCn1cc(C(=O)c2ccccc2)c(-c2cc(Cl)cc(Cl)c2)n1 [Compound 60]
5: Plant response rating (0 to 100), Cupgrass, Woolly ([8]; 125 g ai/ha) | Plant response rating, Cupgrass, Woolly ([8]; 250 g ai/ha)
0: Plant response rating (0 to 100), Canarygrass ([1]; 31 g ai/ha) | Plant response rating (0 to 100), Canarygrass ([1]; 62 g ai/ha) | Plant response rating (0 to 100), Canarygrass ([1]; 125 g ai/ha) | Plant response rating, Canarygrass ([1]; 250 g ai/ha) | Plant response rating (0 to 100), Deadnettle ([2]; 31 g ai/ha) | Plant response rating (0 to 100), Deadnettle ([2]; 62 g ai/ha) | Plant response rating (0 to 100), Deadnettle ([2]; 125 g ai/ha) | Plant response rating, Deadnettle ([2]; 250 g ai/ha) | Plant response rating (0 to 100), Bromegrass, Downy ([3]; 31 g ai/ha) | Plant response rating (0 to 100), Bromegrass, Downy ([3]; 62 g ai/ha) | Plant response rating (0 to 100), Bromegrass, Downy ([3]; 125 g ai/ha) | Plant response rating, Bromegrass, Downy ([3]; 250 g ai/ha) | Plant response rating (0 to 100), Goosegrass ([4]; 31 g ai/ha) | Plant response rating (0 to 100), Goosegrass ([4]; 62 g ai/ha) | Plant response rating (0 to 100), Goosegrass ([4]; 125 g ai/ha) | Plant response rating, Goosegrass ([4]; 250 g ai/ha) | Plant response rating (0 to 100), Foxtail, Green ([5]; 31 g ai/ha) | Plant response rating (0 to 100), Foxtail, Green ([5]; 62 g ai/ha) | Plant response rating (0 to 100), Foxtail, Green ([5]; 125 g ai/ha) | Plant response rating, Foxtail, Green ([5]; 250 g ai/ha) | Plant response rating (0 to 100), Windgrass ([6]; 62 g ai/ha) | Plant response rating (0 to 100), Windgrass ([6]; 125 g ai/ha) | Plant response rating, Windgrass ([6]; 250 g ai/ha) | Plant response rating (0 to 100), Barley ([7]; 31 g ai/ha) | Plant response rating (0 to 100), Barley ([7]; 62 g ai/ha) | Plant response rating (0 to 100), Barley ([7]; 125 g ai/ha) | Plant response rating, Barley ([7]; 250 g ai/ha) | Plant response rating (0 to 100), Cupgrass, Woolly ([8]; 31 g ai/ha) | Plant response rating (0 to 100), Cupgrass, Woolly ([8]; 62 g ai/ha) | Plant response rating, Panicum, Fall ([9]; 31 g ai/ha) | Plant response rating, Panicum, Fall ([9]; 62 g ai/ha) | Plant response rating, Panicum, Fall ([9]; 125 g ai/ha) | Plant response rating, Panicum, Fall ([9]; 250 g ai/ha) | Plant response rating, Soybean (soybean (Glycine max); Postemergence, 31 g ai/ha) | Plant response rating, Soybean (soybean (Glycine max); Postemergence, 62 g ai/ha) | Plant response rating, Soybean (soybean (Glycine max); Postemergence, 125 g ai/ha) | Plant response rating, Soybean (soybean (Glycine max); Postemergence, 250 g ai/ha)
20: Plant response rating, Waterhemp_RES2 ([10]; 62 g ai/ha) | Plant response rating, Waterhemp_RES2 ([10]; 125 g ai/ha)
25: Plant response rating, Waterhemp_RES2 ([10]; 250 g ai/ha)

Cn1cc(C(=O)c2ccccc2)c(-c2cc(Cl)cc(Cl)c2)n1 [Compound 54, [3-(3,5-dichlorophenyl)-1-methyl-1H-pyrazol-4-yl]phenylmethanone]
5: Plant response rating, Deadnettle ([2]; 250 g ai/ha)
80: Plant response rating, Waterhemp_RES2 ([10]; 62 g ai/ha)
0: Plant response rating (0 to 100), Canarygrass ([1]; 31 g ai/ha) | Plant response rating (0 to 100), Canarygrass ([1]; 62 g ai/ha) | Plant response rating (0 to 100), Canarygrass ([1]; 125 g ai/ha) | Plant response rating, Canarygrass ([1]; 250 g ai/ha) | Plant response rating (0 to 100), Deadnettle ([2]; 31 g ai/ha) | Plant response rating (0 to 100), Deadnettle ([2]; 62 g ai/ha) | Plant response rating (0 to 100), Deadnettle ([2]; 125 g ai/ha) | Plant response rating (0 to 100), Bromegrass, Downy ([3]; 31 g ai/ha) | Plant response rating (0 to 100), Bromegrass, Downy ([3]; 62 g ai/ha) | Plant response rating (0 to 100), Bromegrass, Downy ([3]; 125 g ai/ha) | Plant response rating, Bromegrass, Downy ([3]; 250 g ai/ha) | Plant response rating (0 to 100), Goosegrass ([4]; 31 g ai/ha) | Plant response rating (0 to 100), Goosegrass ([4]; 62 g ai/ha) | Plant response rating (0 to 100), Goosegrass ([4]; 125 g ai/ha) | Plant response rating, Goosegrass ([4]; 250 g ai/ha) | Plant response rating (0 to 100), Foxtail, Green ([5]; 31 g ai/ha) | Plant response rating (0 to 100), Foxtail, Green ([5]; 62 g ai/ha) | Plant response rating (0 to 100), Foxtail, Green ([5]; 125 g ai/ha) | Plant response rating, Foxtail, Green ([5]; 250 g ai/ha) | Plant response rating (0 to 100), Windgrass ([6]; 62 g ai/ha) | Plant response rating (0 to 100), Windgrass ([6]; 125 g ai/ha) | Plant response rating, Windgrass ([6]; 250 g ai/ha) | Plant response rating (0 to 100), Barley ([7]; 31 g ai/ha) | Plant response rating (0 to 100), Barley ([7]; 62 g ai/ha) | Plant response rating (0 to 100), Barley ([7]; 125 g ai/ha) | Plant response rating, Barley ([7]; 250 g ai/ha) | Plant response rating (0 to 100), Cupgrass, Woolly ([8]; 31 g ai/ha) | Plant response rating (0 to 100), Cupgrass, Woolly ([8]; 62 g ai/ha) | Plant response rating (0 to 100), Cupgrass, Woolly ([8]; 125 g ai/ha) | Plant response rating, Cupgrass, Woolly ([8]; 250 g ai/ha) | Soybean plant response rating (soybean (Glycine max); 125 g ai/ha)
12: Soybean plant response rating (soybean (Glycine max); 250 g ai/ha)
0%: pest or weed control at 31 g/ha ([9]; Panicum dichotomiflorum, post-emergence, 31 g ai/ha) | pest or weed control at 62 g/ha ([9]; Panicum dichotomiflorum, post-emergence, 62 g ai/ha) | pest or weed control at 125 g/ha ([9]; Panicum dichotomiflorum, post-emergence, 125 g ai/ha) | pest or weed control at 250 g/ha ([9]; Panicum dichotomiflorum, post-emergence, 250 g ai/ha) | plant injury at 31 g/ha (soybean (Glycine max); Glycine max, post-emergence, Postemergence, 31 g ai/ha) | plant injury at 62 g/ha (soybean (Glycine max); Glycine max, post-emergence, Postemergence, 62 g ai/ha) | plant injury at 125 g/ha (soybean (Glycine max); Glycine max, post-emergence, Postemergence, 125 g ai/ha) | plant injury at 250 g/ha (soybean (Glycine max); Glycine max, post-emergence, Postemergence, 250 g ai/ha)
85: Plant response rating, Waterhemp_RES2 ([10]; 125 g ai/ha) | Plant response rating, Waterhemp_RES2 ([10]; 250 g ai/ha)
